One test has as its target AGAP002229 (Anopheles gambiae, UniProt A7UR33). Put plainly: Fluo-4 calcium assay in CRE-luc2P HEK-293 cells expressing AGAP002229. The class given is cell-based. To be noted: antagonist test; receptor not given, taken as both 5-HT2 cell lines. As for the experimental part: A week post-transfection, selective pressure was applied with […] of G418 antibiotic to generate stable lines.
1 × 10^6 cells per well were seeded into a 96-well black all-clear bottom plate and incubated overnight in 10% FBS/90% DMEM at 37 °C with an atmosphere of 5% CO2. The following day, 2X Fluo-4 Direct calcium dye (Molecular Devices LLC, San Jose, CA) was added to each well and incubated in the same conditions for 45 minutes before the assay was completed. At this time, serial dilutions of the test compounds were prepared in a 96-well clear flat bottom plate. […] Fluorescence measurements continued to be recorded for a total of 120 seconds at 2-second intervals. When testing antagonists, cells were treated with the compound prior to determination of fluorescence levels.
(§1) Luminescence and calcium assay data were normalized and fitted with a non-linear least squares regression to generate dose-response curves, EC50 and IC50 values. Unpaired t-tests or Dunnett’s multiple comparisons test were performed accordingly to compare EC50 or IC50 values. Locomotion was measured based on the distance required for flight recovery. Data were compared with the Kruskal-Wallis and Dunnett’s multiple comparison tests after the Kolmogorov-Smirnov normality test was conducted. In the blood-feeding experiments, the percentage of blood-fed mosquitoes was calculated for each treatment group. For each biological replicate, the treatment groups were normalized with respect to the untreated group. Dunnett’s multiple comparison tests were utilized to determine statistical difference between normalized data. Size of bloodmeals were compared with an unpaired t-test or Mann-Whitney test after normality was evaluated with the Kolmogorov-Smirnov test. All analyses were performed utilizing GraphPad Prism version 7.00 for Mac OS X, GraphPad Software, La Jolla California USA, www.graphpad.com.

The target of a further test is AGAP002232 (Anopheles gambiae, UniProt A0A1S4GEY1). Put plainly: Fluo-4 calcium assay in CRE-luc2P HEK-293 cells expressing AGAP002232. The class given is cell-based. As for the experimental part:
The GloResponse™ CRE-luc2P human embryonic kidney (HEK-293) reporter cells were incubated at 37 °C with an atmosphere of 5% CO2, and maintained in Dulbecco’s Modified Eagle Medium (DMEM) supplemented with 10% fetal bovine serum (FBS) and […] hygromycin B. Transfection of the HEK-293 cells with 1 μg of plasmid DNA was performed with Amaxa Nucleofector™ technology (Lonza, Basel, Switzerland) as per manufacturer’s instructions. A week post-transfection, selective pressure was applied with […] of G418 antibiotic to generate stable lines.
1 × 10^6 cells per well were seeded into a 96-well black all-clear bottom plate and incubated overnight in 10% FBS/90% DMEM at 37 °C with an atmosphere of 5% CO2. The following day, 2X Fluo-4 Direct calcium dye (Molecular Devices LLC, San Jose, CA) was added to each well and incubated in the same conditions for 45 minutes before the assay was completed. At this time, serial dilutions of the test compounds were prepared in a 96-well clear flat bottom plate. Fluorescence levels were determined with a FlexStation3 microplate reader, with excitation and emission wavelengths set to 485 and 525 nm, respectively (Molecular Devices LLC). Basal fluorescence levels were measured for 17 seconds, at which time, 25 μl of the agonist compound was added. Fluorescence measurements continued to be recorded for a total of 120 seconds at 2-second intervals. When testing antagonists, cells were treated with the compound prior to determination of fluorescence levels.
as §1

Test [1] deals with octopamine receptor (AGAP000045). Put plainly: Inhibition in HEK-293 cells expressing an octopamine receptor. The class given is cell-based, Anopheles gambiae.
Test [2] deals with Ae. aegypti. Put plainly: Flight performance in flight cylinder after microinjection. It counts as in vivo, Aedes aegypti. The note with it: for Average distance dropped before landing on flight cylinder: Fig. 5b; for Distance average in flight cylinder: Fig. 5d. As for the experimental part:
(§2) Stock solutions of the compounds were diluted to the appropriate concentrations in 1X phosphate buffer solution (PBS). To account for potential solvent effects, an ultrapure H2O control group was included in every independent experiment. Female mosquitoes were either cold- or CO2-anesthetized. A Nanoject II Auto-Nanoliter Injector (Drummond Scientific Company, Broomall, PA) was then utilized to microinject 69 nL of compound into the spiracle.
A flight cylinder was assembled as described previously. The polyacrylamide sheet was coated with Tangle-Trap Sticky Coating (The Scotts Company LLC, Marysville, OH) and allowed to sit overnight before insertion into the flight cylinder. Adult mosquitoes were anesthetized on a CO2 pad and microinjected with the compound or ultrapure H2O control. Post-injection, they were permitted to recover in a fly vial for 30 minutes before being ejected into the flight cylinder. After each trial, the distance between the top of the cylinder and the trapped mosquito was recorded. Mosquitoes captured in the fly vial at the bottom of the cylinder were considered to be incapable of flying and a distance of 91.5 cm was recorded.
as §1

Test [3] relates to Ae. aegypti. Put plainly: Blood-feeding assay (artificial membrane feeder) after microinjection. The class given is in vivo, Aedes aegypti. The note with it: 1 mM microinjected. As for the experimental part: as §2
Seven to ten-day old female mosquitoes were treated with compound or appropriate control through microinjection post cold-anesthetization or ingestion. Two mL of human O^+ blood (BioChemed Services, Winchester, VA) was utilized to cover the concave surface of an inverted baby food jar. Hog intestine sealed the opening to simulate the puncturing of a host’s skin. The feeding membrane was placed on the top of a mosquito cage, and hot water was poured into the jar to warm the blood. After a 45-minute feed, the mosquitoes were immediately preserved at −20 °C. The blood meal size was determined for each mosquito via hemoglobinometry as previously described.
as §1

The test system of a further test is D. melanogaster larvae. Set-up: method as in PMID 23817146. The note with it: cited from earlier work.
Test [4] concerns D1-like dopamine receptors. The note with it: cited from earlier work.
In another test the test system is An. gambiae. To be noted: cited from earlier work.
Another test relates to D. melanogaster. Set-up: method as in PMID 26989517, PMID 24586928. To be noted: larval and adult; cited from earlier work.

Where a name gives a salt, the structure may show the parent alone.

Chain of AGAP002232 (A0A1S4GEY1 entry or part of it): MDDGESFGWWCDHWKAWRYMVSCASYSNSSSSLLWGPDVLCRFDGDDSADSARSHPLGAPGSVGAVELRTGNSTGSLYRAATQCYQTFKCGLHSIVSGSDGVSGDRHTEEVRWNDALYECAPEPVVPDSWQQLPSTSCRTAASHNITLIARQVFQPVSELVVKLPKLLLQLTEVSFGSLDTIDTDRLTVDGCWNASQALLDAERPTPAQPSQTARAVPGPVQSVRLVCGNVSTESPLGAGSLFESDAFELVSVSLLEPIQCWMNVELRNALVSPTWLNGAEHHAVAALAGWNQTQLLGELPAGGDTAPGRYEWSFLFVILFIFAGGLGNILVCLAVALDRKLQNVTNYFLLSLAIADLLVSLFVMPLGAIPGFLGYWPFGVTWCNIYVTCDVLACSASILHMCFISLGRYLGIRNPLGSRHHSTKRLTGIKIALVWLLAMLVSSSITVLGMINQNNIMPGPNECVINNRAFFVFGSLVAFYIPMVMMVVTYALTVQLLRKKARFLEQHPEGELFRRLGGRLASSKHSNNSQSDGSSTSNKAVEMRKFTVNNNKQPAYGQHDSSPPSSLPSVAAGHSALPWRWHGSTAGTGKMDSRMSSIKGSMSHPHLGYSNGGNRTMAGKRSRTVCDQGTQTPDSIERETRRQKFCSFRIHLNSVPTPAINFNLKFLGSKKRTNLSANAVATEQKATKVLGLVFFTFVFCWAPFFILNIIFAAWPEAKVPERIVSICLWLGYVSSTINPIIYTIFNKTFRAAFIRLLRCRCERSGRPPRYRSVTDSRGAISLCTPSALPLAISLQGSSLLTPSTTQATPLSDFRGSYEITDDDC
Chain of AGAP002229 (A7UR33 entry or part of it): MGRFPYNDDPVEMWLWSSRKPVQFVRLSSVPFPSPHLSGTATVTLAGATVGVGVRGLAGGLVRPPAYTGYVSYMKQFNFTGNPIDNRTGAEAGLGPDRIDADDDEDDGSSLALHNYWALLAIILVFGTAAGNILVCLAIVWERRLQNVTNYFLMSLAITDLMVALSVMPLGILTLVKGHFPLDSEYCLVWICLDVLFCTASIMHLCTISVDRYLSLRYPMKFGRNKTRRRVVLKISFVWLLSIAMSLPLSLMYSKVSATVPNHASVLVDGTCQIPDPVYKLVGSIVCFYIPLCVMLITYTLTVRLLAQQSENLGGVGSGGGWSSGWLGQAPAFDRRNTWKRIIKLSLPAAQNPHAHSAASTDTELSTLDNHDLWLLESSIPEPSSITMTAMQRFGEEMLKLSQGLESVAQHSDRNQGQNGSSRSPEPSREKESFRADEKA

For orientation: IC50 means the concentration that gives 50% inhibition. As to `CS(=O)(=O)O.CSc1ccc2c(c1)C(N1CCN(C)CC1)Cc1ccccc1S2` (stereo not shown) [methiothepin, methiothepin mesylate salt], the “Ability to inhibit activity in a dose-response manner” value is “exhibited the ability to inhibit activity in a dose-response manner” at AGAP002229 and “exhibited the ability to inhibit activity in a dose-response manner” on AGAP002232 (antagonist test, receptor not given, taken as both 5-HT2 cell lines). Further, the IC50 on AGAP002232 (read-out: IC50 (calcium response to 5-HT), AGAP002232 HEK-293 cells) was 560 pM. The “Lowest concentration exhibiting inhibitory effects” value at AGAP002232 (receptor not given) is reported as 10^−16 M. Further, the “Inhibitory effect on octopamine receptor” value in test [1] (10^−4 M) is listed as “marked inhibition”; in test [1] (all other concentrations of the range 10^−10 to 10^−4 M) it was “did not elicit a similar result”. In addition, the Successful flights stood at 92% in the test on Ae. aegypti [2] (1 mM microinjected (69 nL)), 84% in the test on Ae. aegypti [2] (1.5 mM microinjected (69 nL)) and 61% in the test with Ae. aegypti [2] (2.5 mM microinjected (69 nL)). Besides, the “Average distance dropped before landing on flight cylinder” value with Ae. aegypti [2] (1 mM) came to 22.77 cm; in the test on Ae. aegypti [2] (1.5 mM), 33.04 cm; in the test with Ae. aegypti [2] (2.5 mM), 49.27 cm. The “Average distance in flight cylinder” value with Ae. aegypti [2] (1.5 mM, Fig. 5c) is 41.38 cm. In the test with Ae. aegypti [3], this compound returned a Blood meal size of 2.25 µL. Further, the “Successfully blood-fed, normalized to the untreated group” value in the test with Ae. aegypti [3] came out at 50.7%. Moreover, the Effect on feeding result in the test with D. melanogaster larvae is reported as “anorectic agent”. Further, in [4], the “Inhibition of D1-like dopamine receptors” value is given as “ability to inhibit D1-like dopamine receptors”.

For `CN(C)CCCC1(c2ccc(F)cc2)OCc2cc(C#N)ccc21` (stereo not shown) [citalopram], the “Flight after microinjection into the thorax” value in the test with An. gambiae was “severe flight defects and a prolonged time for flight recovery”.

For the compound `CNCCC(Oc1ccc(C(F)(F)F)cc1)c1ccccc1` (stereo not shown) [fluoxetine, fluoxetine hydrochloride], the entries for the “Distance average in flight cylinder” value with Ae. aegypti [2] (2.5 mM) and in the test with Ae. aegypti [2] (4 mM) were 41.61 cm and 81.63 cm, respectively. Also, the “Successfully blood-fed, normalized to the untreated group” value with Ae. aegypti [3] is reported as “approximately 80%”. Besides, the Effect on locomotion result in the test on D. melanogaster is on record as “repress locomotion”.

Values taken from publication PMC6418270, “The pharmacological and functional characterization of the serotonergic system in Anopheles gambiae and Aedes aegypti: influences on flight and blood-feeding behavior” (Scientific Reports, 2019).
